Assay results reported in patent US6150385A, “1,3,4-thiadiazoles useful for the treatment of CMV infections” (Pharmacia & Upjohn Company, priority 1999, dated 2000).

Biological target: T1, HCMV polymerase (Human cytomegalovirus, UniProt P08546)
T1 construct: made in house; host or cells: SF-9 insect cells infected with recombinant baculovirus
Test: HCMV polymerase assay (scintillation proximity assay)
Format: biochemical
Conditions: percentage of inhibition at 25 μM concentration in CMV polymerase assay
In short: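 Baculovirus/SF-9-expressed HCMV polymerase in 5.4 mM HEPES pH 7.5, 11.7 mM KCl, 4.5 mM MgCl2, 0.36 mg/ml BSA, 90 nM 3H-dTTP, with or without 2 mM CHAPS. Started with 6 nM biotinylated poly(dA)-oligo(dT), 30 min at 25 or 37 °C, EDTA-stopped, read by streptavidin-SPA counting; % inhibition at 25 μM.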

T1 sequence (P08546 whole entry): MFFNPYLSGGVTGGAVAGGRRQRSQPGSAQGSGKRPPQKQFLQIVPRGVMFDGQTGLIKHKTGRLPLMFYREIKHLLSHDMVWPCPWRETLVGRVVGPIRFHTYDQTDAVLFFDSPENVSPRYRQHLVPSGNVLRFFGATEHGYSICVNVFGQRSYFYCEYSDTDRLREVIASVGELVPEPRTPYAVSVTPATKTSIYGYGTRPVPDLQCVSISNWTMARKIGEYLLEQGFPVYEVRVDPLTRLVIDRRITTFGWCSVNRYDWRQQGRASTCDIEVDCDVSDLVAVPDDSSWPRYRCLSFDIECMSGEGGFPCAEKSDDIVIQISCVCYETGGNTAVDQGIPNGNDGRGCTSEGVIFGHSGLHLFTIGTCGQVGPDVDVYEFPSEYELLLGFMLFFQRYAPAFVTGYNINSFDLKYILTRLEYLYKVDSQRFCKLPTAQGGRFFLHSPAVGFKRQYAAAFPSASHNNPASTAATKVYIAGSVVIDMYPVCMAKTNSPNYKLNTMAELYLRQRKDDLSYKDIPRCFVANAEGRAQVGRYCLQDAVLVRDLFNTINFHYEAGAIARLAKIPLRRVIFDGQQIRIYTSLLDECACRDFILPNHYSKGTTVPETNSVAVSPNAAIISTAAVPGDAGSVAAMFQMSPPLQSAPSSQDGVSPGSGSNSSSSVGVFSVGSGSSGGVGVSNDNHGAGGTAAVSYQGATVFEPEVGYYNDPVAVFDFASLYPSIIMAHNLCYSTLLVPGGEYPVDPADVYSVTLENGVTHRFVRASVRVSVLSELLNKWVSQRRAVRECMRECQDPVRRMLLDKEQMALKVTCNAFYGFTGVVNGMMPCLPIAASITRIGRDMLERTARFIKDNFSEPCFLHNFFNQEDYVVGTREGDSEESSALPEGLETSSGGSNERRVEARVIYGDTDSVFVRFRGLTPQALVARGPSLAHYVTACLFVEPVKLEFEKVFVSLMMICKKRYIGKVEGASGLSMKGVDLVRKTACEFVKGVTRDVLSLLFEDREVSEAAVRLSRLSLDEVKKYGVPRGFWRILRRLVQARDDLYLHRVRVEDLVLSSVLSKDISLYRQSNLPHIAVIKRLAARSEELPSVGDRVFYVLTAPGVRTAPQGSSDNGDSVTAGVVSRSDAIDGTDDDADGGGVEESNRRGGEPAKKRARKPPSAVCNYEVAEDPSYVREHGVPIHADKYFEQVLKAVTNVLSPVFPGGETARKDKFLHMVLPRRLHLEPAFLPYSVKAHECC

O=C(Nc1nnc(NCCc2ccccc2)s1)c1ccc(S(=O)(=O)F)cc1 [compound 472, 4-({[5-(phenethylamino)-1,3,4-thiadiazol-2-yl]amino}carbonyl)benzenesulfonyl fluoride]
% Inhib: 20.0%
